Results as given in US5549910A, “Preparation of liposome and lipid complex compositions” (priority 1994, dated 1996).
Structures can show the parent of a compound that is named as a salt. Where two headings read alike, the source gives them in different places.

How the values were obtained:
[1] = Solubility and solution stability; format: physicochemical
Experimental: Solutions of the polyene antibiotics amphotericin B (30 mM) and nystatin (50 mM) were prepared in DMSO. The primaricin aqueous suspension obtained from Sigma was lyophilized and resuspended in various solvents. […] The polyene antibiotics were combined with the various lipids in a solvent mixture of DMSO, DMSO:MP or DMSO:EtOH (7:3) and then injected into the aqueous phase. The preparations formed were transferred to a dialysis bag and dialyzed versus 100 volumes of distilled water, changed twice unless otherwise indicated. The ratio of the components, exact solvent mixtures and other conditions are given in the results. Samples of the preparations were dissolved in methanol and the polyene concentration determined spectrophotometrically (Szoka et al., supra): amphotericin B at 406 nm, nystatin at 306 nm and primaricin at 318 nm.

[2] = Acute mortality (death within 24 hours of drug administration) in immunosuppressed rabbits challenged with A. fumigatus; format: in vivo, rabbit; conditions: animals dead/total
Experimental: Liposomes were prepared with amphotericin B and cholesterol sulfate as described in Example 3. An immunosuppressive neutropenic rabbit model of invasive aspergillosis was used to compare the lipidic particle formulation with free amphotericin B.
Twenty-eight rabbits were immunosuppressed by administration of cyclophosphamide and triamcinolone. The rabbits were then challenged with 10^6 A. fumigatus. After 24 hours, the rabbits were divided into three treatment groups: eight rabbits received 4.5 mg/Kg/day free amphotericin B; four rabbits received 7.5 mg/Kg/day free amphotericin B; five rabbits received 6-9 mg/Kg/day amphotericin B lipidic particles (equivalent to 3-4.5 mg/Kg/day amphotericin B); three rabbits received 15 mg/Kg/day amphotericin B lipidic particles (equivalent to 7.5 mg/Kg/day amphotericin B); and eight rabbits were controls.
Treatment was continued for 30 days for the 4.5 mg/Kg free amphotericin B and 6-9 mg/Kg lipidic particle treatment groups.

A. fumigatus = experiment: Immunosuppressive neutropenic rabbit model of invasive aspergillosis, organ cultures; format: in vivo, A. fumigatus (in rabbits); conditions: 30 days; Free AmpB 4.5 mg/Kg/day; Lipidic-AmpB 6-9 mg/Kg/day
Text: At the end of the treatment period, the animals were sacrificed, and the liver, kidneys, lung, and brain examined for viable Aspergillis by culturing the organs.

[3] = pH 7.4; cited from earlier work

## CC(C)CCC[C@@H](C)[C@H]1CC[C@H]2[C@@H]3CC=C4C[C@@H](OC(=O)CCC(=O)O)CC[C@]4(C)[C@H]3CC[C@]12C [Chems, cholesterol hemisuccinate]
[1]
  solubility in DMSO: soluble

## CC(C)CCC[C@@H](C)[C@H]1CC[C@H]2[C@@H]3CC=C4C[C@@H](OS(=O)(=O)O)CC[C@]4(C)[C@H]3CC[C@]12C [CholSO4, cholesterol sulfate]
[1]; DMSO
  solubility in DMSO: soluble

## CC(C)CCC[C@@H](C)[C@H]1CC[C@H]2[C@@H]3CC=C4C[C@@H](O)CC[C@]4(C)[C@H]3CC[C@]12C [Cholesterol]
[1]; 1-methyl-2-pyrrolidinone
  solubility in 1-methyl-2-pyrrolidinone: exceedingly soluble

## CC1/C=C/C=C/C=C/C=C/C=C/C=C/C=C/C(OC2OC(C)C(O)C(N)C2O)CC2OC(O)(CC(O)CC(O)C(O)CCC(O)CC(O)CC(=O)OC(C)C(C)C1O)CC(O)C2C(=O)O (stereo not shown) [Free AmpB]
[2]; 4.5 mg/Kg
  Acute mortality (death within 24 hours): 3/8
[2]; 7.5 mg/Kg
  Acute mortality (death within 24 hours): 4/4
A. fumigatus
  Organ Cultures (No. Sterile/Total), Kidney: 5/5
  Organ Cultures (No. Sterile/Total), Liver: 5/5
  Organ Cultures (No. Sterile/Total), Lung: 3/5

## CC1C/C=C/C=C/C=C/C=C/C(OC2OC(C)C(O)C(N)C2O)CC2OC(O)(CC(O)CC3OC3/C=C/C(=O)O1)CC(O)C2C(=O)O (stereo not shown) [Primaricin]
[1]
  solubility in DMSO: very soluble
  stability of solution in DMSO:MP: stable yellow solution

## COc1cccc2c1C(=O)c1c(O)c3c(c(O)c1C2=O)C[C@@](O)(C(=O)CO)C[C@@H]3O[C@H]1C[C@H](N)[C@H](O)[C@H](C)O1 [doxorubicin]
[3]
  aqueous solubility: low aqueous solubility
[1]; DMSO
  solubility in DMSO: very soluble

## cis-platinum
[1]; DMSO
  solubility in DMSO: exceedingly soluble
